Source: patent US12691101B2, “Compound and method for preventing or treating of respiratory diseases comprising the same as an active ingredient” (YONSEI UNIVERSITY, UNIVERSITY - INDUSTRY FOUNDATION (UIF), priority 2019, dated 2026)

Experiments:
tracheal smooth muscle = test: Tracheal contraction in rat tracheal ring; details: 30 μM after carbachol-induced contraction
Description: All experiments were performed using 4-week-old SD male rats. The experimental protocol was approved by the Animal Ethics Committee of Yonsei University. The rats were sacrificed and tracheal strips were separated. After the connective tissue was separated, the organ was cut into 3 mm long rings. The organ was mounted for tension recording under 1 g tension and equilibrated for 1 hour in an organ bath containing 25 mL of oxygenated physiological solution. The solution was gassed successively with 95% 02 and 5% CO2 at 37° C. After 1 hours of stabilization, 0.3 μM carbachol (CCh) was used to induce a sustained contraction reaction in the organ bath. Once the sustained tension was established, F56 (30 μM) and forskolin (10 μM) and IBMX (100 μM) were applied to the bath. The organ contraction was measured using FORT 10G converter (World Precision Instruments, Sarasota, FL, USA) and PowerLab 4/35 (AD Instruments, Castle Hill, Australia). Data were recorded and analyzed using Labchart Pro 7 (AD Instruments).

AN01 = test: Protein expression measurement in IL-4-treated HNE cells, AN01; assay type: cell-based, human; details: long-term treatment
Description: CHO-K1 and HNE cells were lysed with a cytolytic buffer (50 mM Tris-HCl, pH 7.4, 1% Nonidet P-40, 0.25% sodium deoxycholate, 150 mM NaCl, 1 mM EDTA, 1 mM Na3VO4, and protease inhibiting mixture). The total cell lysates were under centrifugation at 15,000×g for 10 minutes at 4° C. to remove cellular debris and the same amount (50 μg protein or 5 μg protein/lane) of supernatant protein was isolated on 4-12% Tris-glycine precast gel (KOMA BIOTECH, Seoul, Korea) and transferred to PVDF membrane (Millipore, Billerica, MA, USA). The membrane was blocked with 5% fat-free skim milk in TBS containing 0.1% Tween 20 (TBST) or 5% bovine serum albumin in TBS at a room temperature for 1 hour. Then, the membrane was cultured at 4° C. overnight with a primary antibody against pendrin (sc-50346; Santa Cruz Biotechnology, Santa Cruz, CA, USA), NF-κB p65 (4764S; Cell Signaling Technology, Danvers, MA, USA), p-NF-κB p65 (3033S; Cell Signaling Technology), IkBα (9242S; Cell Signaling Technology), p-IkBα (9141S; Cell Signaling Technology), β-actin (sc-47778; Santa Cruz Biotechnology), or AN01 (ab64085; Abeam). After washing with 0.05% Tween 20 (TBST) in PBS, the blot was additionally cultured with a secondary antibody (Cell Signaling Technology, Danvers, MA) at a room temperature for 60 minutes. […]

mouse pendrin (mPDS) = biological target: T1, mouse pendrin (mPDS) (Mus musculus, UniProt Q9R155); test: Mouse pendrin-mediated Cl^−/I^− exchange activity in CHO-K1 cells; assay type: cell-based
T1 construct: expressed in transfected cells; host or cells: CHO-K1
Description: (§1) (A) The inhibition of mouse pendrin (mPDS)-mediated Cl^−/I^− exchange activity by F56 was measured in CHO-K1 cells (mean±S.E., n=5). The indicated concentration of F56 was pretreated for 10 minutes. (B) Summary of dose-response for inhibition of the human pendrin (hPDS)-mediated (closed circle, FIG. (a), C) and mPDS-mediated (open circle) Cl^−/I^− exchange activity. (C-F) Representative traces of intracellular pH in CHO-K1 cells expressing SLC26A3, SLC26A6, SLC26A7 and SLC26A9 were shown. The application of Cl^− free solution induced intracellular alkalization by Cl^−/HCO3^− exchange. The indicated concentration of F56 was pretreated for 10 minutes. (G) the effect of F56 (100 μM) on the CFTR chloride channel activity was measured in FRT cells expressing human CFTR. The CFTR current was activated by 20 μM forskolin and was inhibited by 10 μM CFTRinh-172. (H) The effect of F56 (100 μM) on the AN01 chloride channel activity was measured in FRT cells expressing human AN01. Before 10 minutes prior to AN01 activation by 100 μM ATP, F56 was added. (Right) Peak current summary (mean±S.E., n=3). (I) The effect of F56 on the hERG (Kv11.1) potassium channel activity was measured in HEK293T cells expressing human Kv11.1 (mean±S.E., n=4). […] (J) The effect of F56 on the 5-HT2A channel activity was measured in FRT cells expressing human 5-HT2A (mean±S.E., n=4). […]

human 5-HT2A = biological target: T2, human 5-HT2A (Homo sapiens, UniProt P28223); test: 5-HT2A activity in FRT cells; assay type: cell-based; details: pretreated 10 minutes
T2 construct: expressed in transfected cells; host or cells: FRT cells co-expressing ANO1(abc) and YFP-F46L/H148Q/I152L
Description: as §1

T1 sequence (Q9R155 whole entry): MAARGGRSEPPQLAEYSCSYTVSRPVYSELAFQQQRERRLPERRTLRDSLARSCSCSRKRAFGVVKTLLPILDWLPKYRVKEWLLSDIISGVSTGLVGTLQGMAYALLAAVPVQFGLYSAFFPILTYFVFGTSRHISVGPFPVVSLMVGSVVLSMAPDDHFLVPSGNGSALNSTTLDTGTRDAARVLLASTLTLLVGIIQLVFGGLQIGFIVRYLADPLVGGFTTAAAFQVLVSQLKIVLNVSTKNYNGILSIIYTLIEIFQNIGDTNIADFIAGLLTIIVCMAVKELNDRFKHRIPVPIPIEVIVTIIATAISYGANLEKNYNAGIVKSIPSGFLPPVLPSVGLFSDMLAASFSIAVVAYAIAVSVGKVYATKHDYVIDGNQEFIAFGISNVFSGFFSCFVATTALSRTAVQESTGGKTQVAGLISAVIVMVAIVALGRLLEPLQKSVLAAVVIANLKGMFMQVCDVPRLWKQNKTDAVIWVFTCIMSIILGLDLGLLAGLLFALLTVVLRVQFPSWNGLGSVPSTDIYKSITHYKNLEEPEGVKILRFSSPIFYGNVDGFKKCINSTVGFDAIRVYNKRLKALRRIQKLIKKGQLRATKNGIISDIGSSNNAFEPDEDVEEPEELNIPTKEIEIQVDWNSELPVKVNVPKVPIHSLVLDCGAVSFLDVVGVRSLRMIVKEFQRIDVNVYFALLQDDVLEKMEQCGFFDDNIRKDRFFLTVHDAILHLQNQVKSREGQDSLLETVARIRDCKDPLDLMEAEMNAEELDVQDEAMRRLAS

CC(C)(C)c1ccc(C2=NC(=Cc3cccs3)C(=O)O2)cc1 [F56, 2-(4-(tert-butyl)phenyl)-4-(thiophen-2-ylmethylene)oxazol-5(4H)-one]
effect on tracheal smooth muscle (tracheal smooth muscle): did not affect | IL-4-induced upregulation of AN01 (AN01): not affected | inhibition of mouse versus human pendrin-mediated exchange (mouse pendrin (mPDS)): almost the same efficacy | effect on 5-HT2A activity (human 5-HT2A): not affected
